Results taken from patent US20150148311A1, “NON-SYSTEMIC TGR5 AGONISTS” (Ardelyx, Inc., priority 2011, published 2015).

Tests used:
[1] = biological target: T1, human TGR5 (Homo sapiens, UniProt Q8TDU6); assay: Cell-based TGR5 assay, HEK293 cells stably expressing human TGR5, cAMP by HTRF; settings: HEK293 cells stably expressing human TGR5, 30 min at 37 C, 0.05 nM to 10 μM, read-out: pEC50 Human TGR5 (converted)
T1 construct: expressed in transfected cells
T1 sequence (Q8TDU6 1-330): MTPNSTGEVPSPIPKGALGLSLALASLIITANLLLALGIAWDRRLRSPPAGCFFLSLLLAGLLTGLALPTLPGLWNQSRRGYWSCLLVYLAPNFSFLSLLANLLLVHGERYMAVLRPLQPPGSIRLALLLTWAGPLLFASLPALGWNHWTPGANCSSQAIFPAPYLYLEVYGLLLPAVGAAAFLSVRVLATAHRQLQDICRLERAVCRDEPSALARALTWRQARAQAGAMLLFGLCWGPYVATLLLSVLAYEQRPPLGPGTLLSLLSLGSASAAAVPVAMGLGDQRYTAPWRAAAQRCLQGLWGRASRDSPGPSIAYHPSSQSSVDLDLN
Method: (§1) Two primary cell based screens were performed. The first utilized HEK293 cells stably transfected to heterologously express human TGR5. The second screen used the human caecum carcinoma cell line NCI-H716 which endogenously expresses human TGR5. In both assays, cells are treated with candidate TGR5 activators and assessed for the increased intercellular levels of cAMP.
HEK293 cells were transfected with a vector that expresses a gene encoding human TGR5, and a stable cell line was isolated using drug selection following standard techniques. Cells were grown overnight at 37° C./5% CO2 prior to assay.
(§2) TGR5-mediated cAMP generation was measured using a homogeneous time resolved fluorescence (HTRF) detection method (Cisbio). Test compounds were dissolved in DMSO to a final concentration of 10 mM. Serial 3-fold dilutions of the stock solution were made in DMSO, and these solutions were diluted 100-fold into Hanks Balanced Salt Solution supplemented with 10 mM HEPES pH 7.4 and 0.5 mM isobutyl methylxanthine (IBMX). Prior to assay, culture medium was replaced with fresh medium, and test compounds diluted in HBSS/HEPES/IBMX were added to the cells and incubated at 37° C. for 30 minutes.
(§3) Following incubation with test compounds, cAMP was detected through the successive addition of cAMP labeled with the modified allophyocyanin dye d2 (cAMP-d2) and cryptate-labeled anti-cAMP in lysis buffer, and reading HTRF per the manufacturer's instructions. A standard curve was used to convert the raw HTRF data into [cAMP].

[2] = biological target: T2, endogenously expressed TGR5 in NCI H716 (Homo sapiens, UniProt Q8TDU6); assay: Cell-based TGR5 assay, NCI-H716 cells endogenously expressing human TGR5, cAMP by HTRF; settings: 30 min at 37 C, 22 nM to 50 μM, read-out: pEC50 endogenously expressed TGR5 in NCI H716 (converted)
T2 construct: human caecum carcinoma cell line NCI-H716 which endogenously expresses human TGR5; endogenous in cells; host or cells: NCI-H716
T2 sequence (Q8TDU6 1-330): T1 sequence (Q8TDU6 1-330)
Method: as §1, with “cAMP. […]” for “cAMP.”
as §2, §3

Row | EC50 [1] [µM] | EC50 [2] [µM] | Compound
1 | 1.26 to 50.1 | 1.26 to 50.1 | CC(c1cc(Cl)ccc1Cl)N1CCC[C@H]1C(=O)N1CCN(C2CC2)c2ccccc21 (single isomer, unassigned) [Example 67]
2 | 0.126 to 1 | 1.26 to 50.1 | CC(NCc1cc(Cl)ccc1Cl)C(=O)N1CCN(C2CC2)c2ccccc21 (stereo not drawn) [Example 7, 1-(4-cyclopropyl-3,4-dihydroquinoxalin-1(2H)-yl)-2-(2,5-dichlorobenzylamino)propan-1-one]
3 | 1.26 to 50.1 | 1.26 to 50.1 | O=C(O)CCc1cc(Cl)c(OCC2(C(=O)N3CCN(C4CC4)c4ccccc43)CC2)cc1Cl [Example 33, 3-[2,5-dichloro-4-([1-[(4-cyclopropyl-1,2,3,4-tetrahydroquinoxalin-1-yl)carbonyl]cyclopropyl]methoxy)phenyl]propanoic acid]
4 | < 0.1 | < 0.1 | COc1ccccc1N(C)C(=O)C1(NCc2cc(Cl)ccc2Cl)CC1 [Example 38, 1-(2,5-dichlorobenzylamino)-N-(2-methoxyphenyl)-N-methylcyclopropanecarboxamide]
5 | < 0.1 | 0.126 to 1 | O=C(N1CCN(C2CC2)c2ccccc21)C1(OCc2cc(Cl)ccc2Cl)CCC1 [Example 41, 1-cyclopropyl-4-([1-[(2,5-dichlorophenyl)methoxy]cyclobutyl]carbonyl)-1,2,3,4-tetrahydroquinoxaline]
6 | 0.126 to 1 | 0.126 to 1 | O=C(N1CCN(C2CC2)c2ccccc21)C1(OCc2cc(Cl)ccc2C(F)(F)F)CC1 [Example 42, (1-(5-chloro-2-(trifluoromethyl)benzyloxy)cyclopropyl)(4-cyclopropyl-3,4-dihydroquinoxalin-1(2H)-yl)methanone]
7 | < 0.1 | < 0.1 | O=C(N1CCN(C2CC2)c2ccccc21)C1(OCc2cc(C(F)(F)F)ccc2Cl)CC1 [Example 43, 1-[(1-[[2-chloro-5-(trifluoromethyl)phenyl]methoxy]cyclopropyl)carbonyl]-4-cyclopropyl-1,2,3,4-tetrahydroquinoxaline]
8 | 0.126 to 1 | 1.26 to 50.1 | N#Cc1cccc(COC2(C(=O)N3CCN(C4CC4)c4ccccc43)CC2)c1 [Example 45, 3-((1-(4-cyclopropyl-1,2,3,4-tetrahydroquinoxaline-1-carbonyl)cyclopropoxy)methyl)benzonitrile]
9 | < 0.1 | 0.126 to 1 | O=C([C@@H]1CCCN1Cc1cc(Cl)ccc1C(F)(F)F)N1CCN(C2CC2)c2ccccc21 [Example 46, (S)-(1-(5-chloro-2-(trifluoromethyl)benzyl)pyrrolidin-2-yl)(4-cyclopropyl-3,4-dihydroquinoxaline-1(2H)-yl)methanone]
10 | > 10 | 1.26 to 50.1 | O=C([C@@H]1CCCN1Cc1c(Cl)cccc1Cl)N1CCN(C2CC2)c2ccccc21 [Example 47, (S)(4-cyclopropyl-3,4-dihydroquinoxaline-1(2H)-yl)(1-(2,6-dichlorobenzyl)pyrrolidin-2-yl) methanone]
11 | 0.126 to 1 | 1.26 to 50.1 | CN(C[C@H](O)[C@@H](O)[C@H](O)[C@H](O)CO)C(=O)CCc1cc(Cl)c(CN2CCC[C@H]2C(=O)N2CCN(C3CC3)c3ccccc32)cc1Cl [Example 48, 3-(2,5-dichloro-4-(((S)-2-(4-cyclopropyl-1,2,3,4-tetrahydroquinoxaline-1carbonyl)pyrrolidin-1-yl)methyl)phenyl)-N-methyl-N-((2S,3R,4R,5R)-2,3,4,5,6-pentahydroxyhexyl)propanamide]
12 | 0.126 to 1 | – | CN(C[C@H](O)[C@@H](O)[C@H](O)[C@H](O)CO)C(=O)c1cnn(Cc2cc(Cl)c(CN3CSC[C@H]3C(=O)N3CCN(C4CC4)c4ccccc43)cc2Cl)c1 [Example 235]
13 | 0.126 to 1 | – | O=C(NCCCc1cc(Cl)c(OCC2(C(=O)N3CCN(C4CC4)c4ccccc43)CC2)cc1Cl)NC[C@H](O)[C@@H](O)[C@H](O)[C@H](O)CO [Example 250]
14 | 0.126 to 1 | – | O=C(NCCCCc1cc(Cl)c(OCC2(C(=O)N3CCN(C4CC4)c4ccccc43)CC2)cc1Cl)NC[C@H](O)[C@@H](O)[C@H](O)[C@H](O)CO [Example 251]
15 | 0.126 to 1 | – | CN(C[C@H](O)[C@@H](O)[C@H](O)[C@H](O)CO)C(=O)NCCCc1cc(Cl)c(OCC2(C(=O)N3CCN(C4CC4)c4ccccc43)CC2)cc1Cl [Example 253]
16 | 0.126 to 1 | – | CN(C[C@H](O)[C@@H](O)[C@H](O)[C@H](O)CO)C(=O)CCCCc1ccc(Cl)c(CNC2(C(=O)N3CCN(C4CC4)c4ccccc43)CC2)c1 [Example 260]
17 | 0.126 to 1 | – | O=C(CCCCc1ccc(Cl)c(CNC2(C(=O)N3CCN(C4CC4)c4ccccc43)CC2)c1)NC[C@H](O)[C@@H](O)[C@H](O)[C@H](O)CO [Example 261]
18 | 1.26 to 50.1 | – | CN(C[C@H](O)[C@@H](O)[C@H](O)[C@H](O)CO)C(=O)CCCCc1ccc(Cl)c(CNC2(C(=O)N3CCN(C4CC4)c4ccccc43)CC2)c1 [Example 262]
19 | 1.26 to 50.1 | – | O=C(CCCCc1ccc(Cl)c(CNC2(C(=O)N3CCN(C4CC4)c4ccccc43)CC2)c1)NC[C@H](O)[C@@H](O)[C@H](O)[C@H](O)CO [Example 263]

Row | EC50 [1] [µM] | EC50 [2] [µM] | Compound
20 | 0.126 to 1 | – | O=C([C@H]1C[C@H](F)CN1Cc1cc(Cl)ccc1C(F)(F)F)N1CCN(C2CC2)c2ccccc21 [Example 264]
21 | 1.26 to 50.1 | – | CN(C[C@H](O)[C@@H](O)[C@H](O)[C@H](O)CO)C(=O)CCc1cc(Cl)c(CN2C[C@@H](F)C[C@H]2C(=O)N2CCN(C3CC3)c3ccccc32)cc1Cl [Example 266]
22 | 1.26 to 50.1 | – | CN(C[C@H](O)[C@@H](O)[C@@H](O)[C@H](O)CO)C(=O)CCc1cc(Cl)c(CN2C[C@@H](F)C[C@H]2C(=O)N2CCN(C3CC3)c3ccccc32)cc1Cl [Example 267]
23 | 1.26 to 50.1 | – | CN(C[C@H](O)[C@@H](O)[C@H](O)[C@H](O)CO)C(=O)CCCCc1ccc(C(F)(F)F)c(CN2CSC[C@H]2C(=O)N2CCN(C3CC3)c3ccccc32)c1 [Example 269]
24 | 0.126 to 1 | – | O=C([C@@H]1CSCN1Cc1cc(I)ccc1C(F)(F)F)N1CCN(C2CC2)c2ccccc21 [Example 270]
25 | 1.26 to 50.1 | – | O=C(CCCCc1ccc(C(F)(F)F)c(CN2CSC[C@H]2C(=O)N2CCN(C3CC3)c3ccccc32)c1)NC[C@H](O)[C@@H](O)[C@H](O)[C@H](O)CO [Example 271]
26 | 1.26 to 50.1 | – | O=C(CCCCc1ccc(C(F)(F)F)c(CNC2(C(=O)N3CCN(C4CC4)c4ccccc43)CC2)c1)NC[C@H](O)[C@@H](O)[C@H](O)[C@H](O)CO [Example 272]
27 | 0.126 to 1 | – | NCCCC[C@@H]1NC(=O)N(CCCCCc2cc(Cl)c(CN3CSC[C@H]3C(=O)N3CCN(C4CC4)c4ccccc43)cc2Cl)C1=O [Example 273]
28 | 0.126 to 1 | – | COC(=O)[C@H](CCCCN)NC(=O)NCCCCCc1cc(Cl)c(CN2CSC[C@H]2C(=O)N2CCN(C3CC3)c3ccccc32)cc1Cl [Example 274]
29 | 0.126 to 1 | – | COC(=O)[C@@H](CCCCN)NC(=O)NCCCCCc1cc(Cl)c(CN2CSC[C@H]2C(=O)N2CCN(C3CC3)c3ccccc32)cc1Cl [Example 275]
30 | 0.126 to 1 | – | CN(C[C@H](O)[C@@H](O)[C@H](O)[C@H](O)CO)C(=O)CN(CCCCCc1cc(Cl)c(CN2CSC[C@H]2C(=O)N2CCN(C3CC3)c3ccccc32)cc1Cl)CC(=O)O [Example 277]
31 | 0.126 to 1 | – | CN(C[C@H](O)C(O)[C@H](O)[C@H](O)CO)C(=O)CC[C@H](NC(=O)CCCCc1cc(Cl)c(CN2CSC[C@H]2C(=O)N2CCN(C3CC3)c3ccccc32)cc1Cl)C(=O)N(C)C[C@H](O)[C@@H](O)[C@H](O)[C@H](O)CO (stereo partly drawn) [Example 280]
32 | < 0.1 | – | O=C(O)CN1CCN(C(=O)NCCCCCc2cc(Cl)c(CN3CSC[C@H]3C(=O)N3CCN(C4CC4)c4ccccc43)cc2Cl)CC1 [Example 281]
33 | 1.26 to 50.1 | – | O=C([C@@H]1CSCN1Cc1cc(Cl)c(CN2CSC[C@H]2C(=O)N2CCN(C3CC3)c3ccccc32)cc1Cl)N1CCN(C2CC2)c2ccccc21 [Example 284]
34 | 0.126 to 1 | – | O=C(NC[C@H](O)[C@@H](O)[C@H](O)[C@H](O)CO)c1ccc(OCCCc2cc(Cl)c(CN3CSC[C@H]3C(=O)N3CCN(C4CC4)c4ccccc43)cc2Cl)cc1 [Example 286]
35 | 0.126 to 1 | – | CN(C(=O)[C@@H]1CSCN1Cc1cc(Cl)ccc1Cl)c1ccccc1OC1CC1 [Example 289]
36 | 0.126 to 1 | – | CN(C(=O)[C@@H]1CSCN1Cc1cc(Cl)ccc1Cl)c1ccccc1OC1CCC1 [Example 290]
37 | 1.26 to 50.1 | – | O=C(C1SCCN1Cc1cc(Cl)ccc1Cl)N1CCN(C2CC2)c2ccccc21 (stereo not drawn) [Example 291]
